Source: patent US11858921B2, “Uracil derivatives as TRPA1 inhibitors” (Boehringer Ingelheim International GmbH, priority 2021, dated 2024)

Tests used:
[1] = target: T1, human TRPA1 ion channel (Homo sapiens, UniProt O75762); experiment: Assay A: TRPA1 assay (FLIPR calcium, AITC agonism); assay type: cell-based; settings: read-out: hTRPA1 IC50
T1 construct: host or cells: HEK293
Description: A human HEK293 cell line over-expressing the human TRPA1 ion channel (Perkin Elmer, Product No. AX-004-PCL) is used as a test system for compound efficacy and potency. Compound activity is determined by measuring the effect of compounds on intracellular calcium concentration induced by AITC (Allylisothiocyanat) agonism in a FLIPRtetra system (Molecular Devices).
The cells are obtained as frozen cells in cryo-vials and stored until use at −150° C.
Cells are grown in culture medium (MEM/EBSS medium with 10% FCS and 0.4 mg/ML Geneticin). […] For sub-culturing cells are detached from flasks by Versene. At the day before the assay, cells are detached, washed twice with medium (MEM/EBSS medium with 10% FCS) and 20000 cells in 20 μl/well are seeded to Poly D-Lysin biocoated 384-well plates (black, clear bottom, Cat. 356697) from Corning. Plates are incubated for 24 hours at 37° C./5% CO2 before use in the assay.
The test compounds are dissolved in 100% DMSO at a concentration of 10 mM and in a first step diluted in DMSO to a concentration of 5 mM, followed by serial dilution steps in 100% DMSO. Dilution factor and number of dilution steps may vary according to needs. Typically 8 different concentrations by 1:5 dilutions are prepared, further intermediate dilutions (1:20) of the substances are carried out with HBSS/HEPES buffer (1×HEPES, Cat. 14065 from Gibco, 20 mM HEPES, Cat. 83264 from SIGMA, 0.1% BSA Cat. 11926 from Invitrogen, pH 7.4
At the assay day cells are washed 3× with assay puffer, 20 μL buffer remaining in the wells after washing. 10 μL Ca6 kit (Cat. R8191 MolecularDevices) loading buffer in HBSS/HEPES is added to the cells and the plates are incubated with lid for 120 minutes at 37°/5% CO2. 10 μL of compound or controls in HBSS/HEPES buffer/5% DMSO from the intermediate dilution plate are carefully added to the wells. […] Finally 10 μL of the agonist AITC 50 μM dissolved in HBSS/HEPES buffer/0.05% DMSO (final concentration 10 μM) is added to the wells followed by an additional read on the FLIPRtetra device for 10 minutes. The area under the signal curve (AUC) after AITC addition is used for IC50/% inhibition calculations Data evaluation and calculation:
Each assay microtiter plate contains wells with vehicle (1% DMSO) controls instead of compound as controls for AITC induced luminescence (100% CTL; high controls) and wells with vehicle controls without AITC as controls for non-specific changes in luminescence (0% CTL; low controls).
The analysis of the data is performed by the calculation of the area under signal curve of the individual wells. Based on this values the % value for the measurement of each substance concentration is calculated (AUC(sample)−AUC(low))*100/(AUC(high)−AUC(low)) using MegaLab software (in house development). The IC50 values are calculated from the % control values using MegaLab software. Calculation: [y=(a−d)/(1+(x/c)^b)+d], a=low value, d=high value; x=conc M; c=IC50 M; b=hill; y=% ctrl

[2] = Assay C: Hepatocyte clearance; assay type: in vitro ADME, human; settings: hepatocyte suspension, 5% species serum, test compound 1 μM, up to 6 h
Description: Assay C: Hepatocyte Clearance
The metabolic degradation of the test compound is assayed in a hepatocyte suspension. Hepatocytes (cryopreserved) are incubated in Dulbecco's modified eagle medium (supplemented with 3.5 μg glucagon/500 mL, 2.5 mg insulin/500 mL and 3.75 mg/500 mL hydrocortison) containing 5% species serum.
The cells are incubated for six hours (incubator, orbital shaker) and samples (25 μl) are taken at 0, 0.5, 1, 2, 4 and 6 hours. Samples are transferred into acetonitrile and pelleted by centrifugation (5 min). The supernatant is transferred to a new 96-deepwell plate, evaporated under nitrogen and resuspended.
Decline of parent compound is analyzed by HPLC-MS/MS
CLint is calculated as follows CL_[…]=Dose/AUC=(CO/CD)/(AUD+clast/k)×1000/60. C0: initial concentration in the incubation [μM], CD: cell density of vital cells [10e6 cells/mL], AUD: area under the data [μM×h], clast: concentration of last data point [μM], k: slope of the regression line for parent decline [h−1].
The calculated in vitro hepatic intrinsic clearance can be scaled up to the intrinsic in vivo hepatic Clearance and used to predict hepatic in vivo blood clearance (CL) by the use of a liver model (well stirred model). CL_[…]_INVIVO [ml/min/kg]=(CL_[…] [μL/min/10e6 cells]×hepato-cellularity [10e6 cells/g liver]×liver factor [g/kg bodyweight])/1000 CL[ml/min/kg]=CL_[…]_INVIVO [ml/min/kg]×hepatic blood flow [ml/min/kg]/(CL_[…]_INVIVO [ml/min/kg]+hepatic blood flow [ml/min/kg]) Qh[%]=CL[ml/min/kg]/hepatic blood flow [ml/min/kg])
(§1) Hepatocellularity, human: 120×10e6 cells/g liver
(§2) Liver factor, human: 25.7 g/kg bodyweight
(§3) Blood flow, human: 21 ml/(min×kg)

[3] = Assay B: Microsomal clearance; assay type: in vitro ADME, human; settings: pooled liver microsomes 1 mg/ml, test compound 1 μM, 37° C., NADPH
Description: Assay B: Microsomal Clearance:
The metabolic degradation of the test compound is assayed at 37° C. with pooled liver microsomes. The final incubation volume of 100 μl per time point contains TRIS buffer pH 7.6 at RT (0.1 M), magnesium chloride (5 mM), microsomal protein (1 mg/ml) and the test compound at a final concentration of 1 μM.
Following a short preincubation period at 37° C., the reactions are initiated by addition of beta-nicotinamide adenine dinucleotide phosphate, reduced form (NADPH, 1 mM) and terminated by transferring an aliquot into solvent after different time points (0, 5, 15, 30, 60 min). Additionally, the NADPH-independent degradation is monitored in incubations without NADPH, terminated at the last time point. The [%] remaining test compound after NADPH independent incubation is reflected by the parameter c(control) (metabolic stability). The quenched incubations are pelleted by centrifugation (10000 g, 5 min).
An aliquot of the supernatant is assayed by LC-MS/MS for the amount of parent compound. The half-life (t½ INVITRO) is determined by the slope of the semilogarithmic plot of the concentration-time profile.
The intrinsic clearance (CL_[…]) is calculated by considering the amount of protein in the incubation: CL_[…] [μl/min/mg protein]=(Ln 2/(half-life [min]*protein content [mg/ml]))*1000 CL_[…]_INVIVO [ml/min/kg]=(CL_[…] [μL/min/mg protein]×MPPGL [mg protein/g liver]×liver factor [g/kg bodyweight])/1000 Qh[%]=CL[ml/min/kg]/hepatic blood flow [ml/min/kg])
as §1, §2, §3

T1 sequence (O75762 whole entry): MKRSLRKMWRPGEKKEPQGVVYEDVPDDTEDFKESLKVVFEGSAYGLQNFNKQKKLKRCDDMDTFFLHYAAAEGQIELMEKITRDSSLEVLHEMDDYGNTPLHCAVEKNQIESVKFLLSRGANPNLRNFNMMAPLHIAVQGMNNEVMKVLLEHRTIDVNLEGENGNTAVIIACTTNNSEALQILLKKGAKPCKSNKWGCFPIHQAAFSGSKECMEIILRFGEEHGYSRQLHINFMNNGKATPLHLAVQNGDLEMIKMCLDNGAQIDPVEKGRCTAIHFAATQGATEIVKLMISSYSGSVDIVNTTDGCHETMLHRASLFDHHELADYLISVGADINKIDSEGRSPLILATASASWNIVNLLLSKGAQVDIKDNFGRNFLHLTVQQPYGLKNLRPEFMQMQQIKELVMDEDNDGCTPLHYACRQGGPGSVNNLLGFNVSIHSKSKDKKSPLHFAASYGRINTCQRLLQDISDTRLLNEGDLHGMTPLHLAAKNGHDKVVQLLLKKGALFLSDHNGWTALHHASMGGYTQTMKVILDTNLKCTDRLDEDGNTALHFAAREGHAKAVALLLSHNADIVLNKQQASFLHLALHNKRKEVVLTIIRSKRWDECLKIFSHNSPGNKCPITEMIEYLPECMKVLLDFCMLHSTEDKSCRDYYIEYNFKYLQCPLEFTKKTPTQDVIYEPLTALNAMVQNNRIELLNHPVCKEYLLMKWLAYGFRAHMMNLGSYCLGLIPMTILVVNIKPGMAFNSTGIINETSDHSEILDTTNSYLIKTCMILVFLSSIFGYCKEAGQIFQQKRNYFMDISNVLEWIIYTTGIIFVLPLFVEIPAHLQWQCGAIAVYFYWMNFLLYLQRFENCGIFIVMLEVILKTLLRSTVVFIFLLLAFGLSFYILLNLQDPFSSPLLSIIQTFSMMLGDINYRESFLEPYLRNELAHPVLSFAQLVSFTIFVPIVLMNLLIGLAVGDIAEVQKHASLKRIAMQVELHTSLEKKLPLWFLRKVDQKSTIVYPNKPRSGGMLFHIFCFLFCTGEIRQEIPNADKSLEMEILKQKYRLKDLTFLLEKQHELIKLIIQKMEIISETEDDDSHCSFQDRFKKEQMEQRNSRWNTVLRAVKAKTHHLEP

Cn1c(=O)c(C(N)=O)cn(Cc2nc(C[C@H](O)c3ccc(Cl)cc3)no2)c1=O [Example 1, 1-({3-[(2S)-2-(4-chlorophenyl)-2-hydroxyethyl]-1,2,4-oxadiazol-5-yl}methyl)-3-methyl-2,4-dioxo-1,2,3,4-tetrahydropyrimidine-5-carboxamide]
IC50 [1]: 0.038 µM | human Hepatocytes [% Qh] [2]: 15 % Qh | human LM [% Qh] [3]: <23 % Qh

Cn1c(=O)c(C(N)=O)cn(Cc2nc(C[C@H](O)c3cc4ccccc4s3)no2)c1=O [Example 2]
IC50 [1]: 0.006 µM | human Hepatocytes [% Qh] [2]: 24 % Qh | human LM [% Qh] [3]: <23 % Qh

Cn1c(=O)c(C(N)=O)cn(Cc2nc(C[C@H](O)c3cc4ccc(F)cc4s3)no2)c1=O [Example 3]
IC50 [1]: 0.008 µM | human Hepatocytes [% Qh] [2]: 17 % Qh | human LM [% Qh] [3]: 43 % Qh

Cn1c(=O)c(C(N)=O)cn(Cc2nc(C[C@H](O)c3cc4cc(Cl)ccc4o3)no2)c1=O [Example 4]
IC50 [1]: 0.015 µM | human Hepatocytes [% Qh] [2]: 21 % Qh | human LM [% Qh] [3]: <23 % Qh

Cn1c(=O)c(C(N)=O)cn(Cc2nc(C[C@H](O)c3cc4cc(F)ccc4o3)no2)c1=O [Example 5]
IC50 [1]: 0.033 µM | human Hepatocytes [% Qh] [2]: 15 % Qh | human LM [% Qh] [3]: <23 % Qh

Cn1c(=O)c(C(N)=O)cn(Cc2nc(C[C@H](O)c3ccc(I)cc3)no2)c1=O [Example 6]
IC50 [1]: 0.057 µM | human Hepatocytes [% Qh] [2]: 17 % Qh | human LM [% Qh] [3]: 24 % Qh

Cc1ccc([C@@H](O)Cc2noc(Cn3cc(C(N)=O)c(=O)n(C)c3=O)n2)cc1 [Example 7]
IC50 [1]: 0.084 µM | human Hepatocytes [% Qh] [2]: 8 % Qh | human LM [% Qh] [3]: <23 % Qh
